The subject of test [1] is Candida albicans NRRL Y-477. The experiment in a line: MIC, two-fold serial dilution, C. albicans. In kind it is cell-based. As to conditions: NRRLY477, read-out: Minimum inhibitory concentration, CA. An outline of the steps:
(§1)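 Compounds with agar-well inhibition zone >16 mm went on to two-fold broth dilution at final 1000, 500, 250 and 125 μg/mL. Inocula were 1×10^8 CFU/mL for bacteria and 1×10^6 CFU/mL for yeast (0.1 mL per 5 mL), incubated 37 °C for 24 h. MIC taken as the lowest concentration with no growth.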

Test [2] has as its system Staphylococcus aureus ATCC 29213. The test can be described thus: Agar well diffusion, S. aureus. The following applies: ATCC29213, 100 μL of 10 mg/mL in DMSO, read-out: diameter of inhibition zone, SA. In kind it is cell-based. The procedure, abridged:
(§2)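 Read-out: inhibition zone diameter in mm, mean of triplicate runs. Compound solution (10 mg/mL in DMSO, 100 μL) was loaded into 10 mm wells cut in seeded NA (bacteria, 1 × 10^8 CFU/mL) or SDA (yeast, 1 × 10^6 CFU/mL), then incubated 24 h at 37 °C.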
In general terms: In agar diffusion tests the substance spreads into inoculated agar from a disc or well.

The target in test [3] is T1, COX-2 (Homo sapiens, UniProt P35354).
T1 construct: purchased Cayman Chemical 701080
T1 sequence (P35354 18-604): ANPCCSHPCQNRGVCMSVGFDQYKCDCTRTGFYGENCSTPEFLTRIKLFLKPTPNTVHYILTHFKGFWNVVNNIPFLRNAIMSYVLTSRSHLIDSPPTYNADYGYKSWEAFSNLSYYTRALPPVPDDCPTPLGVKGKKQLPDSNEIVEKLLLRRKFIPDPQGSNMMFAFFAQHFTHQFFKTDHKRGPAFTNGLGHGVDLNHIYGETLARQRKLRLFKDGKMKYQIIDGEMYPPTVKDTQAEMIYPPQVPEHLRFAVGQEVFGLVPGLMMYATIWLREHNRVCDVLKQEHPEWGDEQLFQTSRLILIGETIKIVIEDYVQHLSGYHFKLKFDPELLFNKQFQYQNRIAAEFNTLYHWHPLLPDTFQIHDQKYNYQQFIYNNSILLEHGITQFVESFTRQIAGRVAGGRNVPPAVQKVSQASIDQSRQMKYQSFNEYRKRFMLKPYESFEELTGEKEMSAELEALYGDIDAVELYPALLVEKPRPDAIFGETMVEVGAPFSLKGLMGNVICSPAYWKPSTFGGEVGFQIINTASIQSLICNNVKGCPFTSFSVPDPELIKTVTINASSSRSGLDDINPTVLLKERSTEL
The test can be described thus: COX-2 inhibition, Cayman assay kit. In kind it is biochemical. The following applies: for IC50: mean of two determinations; for SI, selectivity index (COX-1/COX-2): ratio of COX-1/COX-2 IC50.

The test system of test [4] is Saccharomyces cerevisiae local isolate. The experiment in a line: Agar well diffusion, S. cerevisiae. In kind it is cell-based. The following applies: read-out: diameter of inhibition zone, SC. An outline of the steps:
as §2

The subject of test [5] is tested microorganisms. The experiment in a line: MIC, summary over the tested microorganisms. In kind it is cell-based. As to conditions: two-fold serial dilution. The source says:
The new molecules were individually tested for their antimicrobial activity in vitro against standard bacteria strains from the American Type Culture Collection (ATCC), namely, Staphylococcus aureus ATCC 29213, Bacillus subtilis ATCC 6633, Bacillus megaterium ATCC 9885 (Gram-positive), Escherichia coli ATCC 2592, and Pseudomonas aeruginosa ATCC 27,953 (Gram-negative). The compounds were also microbiologically tested against locally isolated Saccharomyces cerevisiae (yeast) and the standard Agricultural Research Service Culture Collection (NRRL) strain of the yeast-like pathogenic fungus Candida albicans NRRL Y-477. Primary screening was conducted using the agar well diffusion method using nutrient agar (NA) medium and Sabourand dextrose agar (SDA) medium for the tested pathological bacteria and yeast, respectively. […].
The bacteriostatic activity of the active compounds (having IZ > 16 mm) was then evaluated using the two-fold serial dilution technique. Two-fold serial dilutions of the tested compounds solutions were prepared using the proper nutrient broth to reach final concentrations of 1000, 500, 250, and 125 μg/mL. The tubes were then inoculated with the test microorganisms grown in their suitable broth at 37 °C for 24 h (1 × 10^8 CFU/mL for bacteria and 1 × 10^6 CFU/mL of yeast), 0.1 mL of the above inoculum was administered per 5 mL, and the tubes were incubated at 37 °C for 24 h. The lowest concentration showing no growth was taken as the MIC.

For test [6], the system named is Bacillus subtilis ATCC 6633. The experiment in a line: Agar well diffusion, B. subtilis. As to conditions: ATCC6633, 100 μL of 10 mg/mL in DMSO, read-out: diameter of inhibition zone, BS. Format: cell-based. The procedure, abridged: as §2
Test [7] has as its system Escherichia coli ATCC 2592. The experiment in a line: Agar well diffusion, E. coli. In kind it is cell-based. As to conditions: ATCC2592, 100 μL of 10 mg/mL in DMSO, read-out: diameter of inhibition zone, EC. The procedure, abridged: as §2
For test [8], the system named is Bacillus subtilis ATCC 6633. The test can be described thus: MIC, two-fold serial dilution, B. subtilis. Format: cell-based. As to conditions: ATCC6633, read-out: Minimum inhibitory concentration, BS. An outline of the steps:
as §1

The test system of test [9] is formaldehyde-induced rat paw oedema. The test can be described thus: Formaldehyde-induced rat paw oedema (prophylactic). In kind it is in vivo. The following applies: 2.5 mg/kg orally, 1 h after inducing inflammation.

≈ marks a conversion by molar mass, not a printed value. Where “and” joins values, the source holds several entries; their conditions need not be identical. Equal values may be shown once. Read-outs that look alike come from different tables or passages of the source.

Consider `O=c1oc2ccc(Cl)cc2c(O)c1S(=O)(=O)Nc1ccc(O)cc1` [8c, 6-Chloro-4-hydroxy-N-(4-hydroxyphenyl)-2-oxo-2H-chromene-3-sulfonamide], for which the MIC in test [1], in [5] (read-out: MIC against one or more tested microorganisms) and in [8] was 125 µg/mL (≈ 340 µM) each time. In addition, the zone of inhibition (commonly the extent of the growth-free halo in a diffusion test) at 10000 µg/mL was 30 mm in [2]; 31 to 32 mm in [4] (well diffusion, 100 μL of 10 mg/mL in DMSO, S. cerevisiae); 29 mm in [6]; 27 mm in [7]. Besides, the 50% inhibitory concentration (IC50) (usually the concentration that inhibits the measured activity by half) in [3] is 11.9 µM. For the same compound, the “SI, selectivity index (COX-1/COX-2)” value in [3] was 1.3 and 1.29. Besides, the “% inhibition of paw oedema” value in test [9] was 9.45%.
As to `Cc1ccc2oc(=O)c3c(c2c1)OC(N)=C(C#N)C3c1ccco1` (racemic) [2b, (±)-2-Amino-4-(furan-2-yl)-9-methyl-5-oxo-4H,5H-pyrano[3,2-c]chromene-3-carbonitrile], the MIC is 500 µg/mL (≈ 1560 µM) in [1], 500 to 1000 µg/mL (≈ 1560 to 3120 µM) in [5] (read-out: MIC against Gram-positive bacteria) and 500 µg/mL (≈ 1560 µM) in [8]. Besides, the zone of inhibition at 10000 µg/mL was determined as 25 mm in test [2], 27 mm in test [4], 23 mm in [6] and 18 mm in test [7]. This compound had an IC50 in [3] of 4.25 µM. For the same compound, the “SI, selectivity index (COX-1/COX-2)” value in test [3] was 47.3 and 47.33. Moreover, in [9], the “% inhibition of paw oedema” value worked out at 6.57%.

For the origin of these results see PMC7397269, “Synthesis and Evaluation of New Coumarin Derivatives as Antioxidant, Antimicrobial, and Anti-Inflammatory Agents” (Molecules, 2020).
